According to PMC6377810 (ACS chemical biology, 2018):
Where two headings read alike, the source gives them in different places. One block for each compound: values may come before it.

What was measured:
Hsc70 [1] = target: T1, Hsc70 (Homo sapiens, UniProt P11142); experiment: direct binding by quench of compound fluorescence
Hsc70 [2] = target: T1, Hsc70; experiment: malachite green ATP turnover assay; format: biochemical
Hsp72 (Homo sapiens) [3] = target: Hsp72 (Homo sapiens) (UniProt P0DMV8); conditions: cited from earlier work
Hsp72 (Homo sapiens) [4] = target: Hsp72 (Homo sapiens) (UniProt P0DMV8); conditions: cited from earlier work; remark: listed apart in the source
Hsc70 [5] = target: T1, Hsc70; experiment: direct binding by quench of compound fluorescence; remark: listed apart in the source

T1 sequence (P11142 whole entry): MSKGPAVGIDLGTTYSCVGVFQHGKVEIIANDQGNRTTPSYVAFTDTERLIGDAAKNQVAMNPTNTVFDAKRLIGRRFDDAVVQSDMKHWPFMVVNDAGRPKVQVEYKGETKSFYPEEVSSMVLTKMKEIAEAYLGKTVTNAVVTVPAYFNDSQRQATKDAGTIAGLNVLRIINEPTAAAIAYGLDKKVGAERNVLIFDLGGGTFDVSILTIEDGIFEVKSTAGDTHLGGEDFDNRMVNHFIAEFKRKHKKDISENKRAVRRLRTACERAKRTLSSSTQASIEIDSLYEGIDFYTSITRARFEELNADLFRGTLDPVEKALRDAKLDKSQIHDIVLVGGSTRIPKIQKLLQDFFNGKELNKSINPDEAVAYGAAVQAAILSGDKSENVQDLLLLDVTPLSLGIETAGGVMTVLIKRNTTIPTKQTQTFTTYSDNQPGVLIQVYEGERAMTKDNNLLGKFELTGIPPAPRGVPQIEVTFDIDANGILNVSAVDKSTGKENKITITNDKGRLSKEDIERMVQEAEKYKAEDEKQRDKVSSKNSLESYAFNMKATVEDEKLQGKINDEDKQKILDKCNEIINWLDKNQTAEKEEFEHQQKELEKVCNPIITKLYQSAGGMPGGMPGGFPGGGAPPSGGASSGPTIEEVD
Chain of Hsp72 (Homo sapiens) (P0DMV8 2-641): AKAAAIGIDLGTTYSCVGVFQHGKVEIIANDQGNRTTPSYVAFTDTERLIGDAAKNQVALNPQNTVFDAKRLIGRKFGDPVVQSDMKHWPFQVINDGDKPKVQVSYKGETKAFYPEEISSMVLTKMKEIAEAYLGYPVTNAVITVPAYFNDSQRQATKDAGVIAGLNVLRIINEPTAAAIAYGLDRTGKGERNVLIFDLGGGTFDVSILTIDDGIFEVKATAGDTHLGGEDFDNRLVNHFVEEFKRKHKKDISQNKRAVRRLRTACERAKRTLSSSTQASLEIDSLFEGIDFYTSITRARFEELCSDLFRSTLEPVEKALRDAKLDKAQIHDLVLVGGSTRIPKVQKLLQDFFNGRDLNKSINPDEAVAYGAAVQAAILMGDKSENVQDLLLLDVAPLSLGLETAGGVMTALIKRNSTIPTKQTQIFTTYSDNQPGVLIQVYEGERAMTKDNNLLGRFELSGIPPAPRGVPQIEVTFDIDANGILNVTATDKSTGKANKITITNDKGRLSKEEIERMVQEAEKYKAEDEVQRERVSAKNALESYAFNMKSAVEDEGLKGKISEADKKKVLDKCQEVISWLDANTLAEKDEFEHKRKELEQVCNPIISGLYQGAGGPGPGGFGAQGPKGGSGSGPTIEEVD
Chain of BAG1 (Q99933 whole entry): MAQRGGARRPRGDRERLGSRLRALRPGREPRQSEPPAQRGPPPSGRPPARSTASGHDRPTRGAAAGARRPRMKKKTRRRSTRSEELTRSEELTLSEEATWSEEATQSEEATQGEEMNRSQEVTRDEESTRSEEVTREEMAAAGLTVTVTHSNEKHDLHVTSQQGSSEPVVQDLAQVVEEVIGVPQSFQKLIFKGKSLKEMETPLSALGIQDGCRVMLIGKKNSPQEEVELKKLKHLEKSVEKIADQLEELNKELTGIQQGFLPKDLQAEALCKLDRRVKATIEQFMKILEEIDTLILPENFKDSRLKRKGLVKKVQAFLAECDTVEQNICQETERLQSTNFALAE

Compound: Nc1ncnc2c1ncn2[C@@H]1O[C@H](COP(=O)(O)OP(=O)(O)OP(=O)(O)O)[C@@H](O)[C@H]1O [ATP]
- malachite green ATP turnover assay; partial proteolysis in the ATP-bound state (Hsc70 [2]): ~ 2 pmol/µM Hsc70/min

Compound: BAG1 (from UniProt Q99933)
- Kd (Hsp72 (Homo sapiens) [3]): 36 nM
- Kd (Hsp72 (Homo sapiens) [4]): 8 nM

Compound: CCn1c(=O)/c(=C2\Sc3cc(Cl)ccc3N2C)s/c1=C\c1scc[n+]1Cc1cccc(C(F)(F)F)c1 [JG-115, 2-((Z)-((E)-5-(6-chloro-3-methylbenzo[d]thiazol-2(3H)-ylidene)-3-ethyl-4-oxothiazolidin-2-ylidene)methyl)-3-(3-(trifluoromethyl)benzyl)thiazol-3-ium chloride]
- Kd (Hsc70 [1]): ~3100 nM

The next lines start with the values.

- Kd (Hsc70 [1]): ~2600 nM
Compound: CCn1c(=O)/c(=C2\Sc3cc(Cl)ccc3N2C)s/c1=C\c1scc[n+]1Cc1ccc(C(F)(F)F)cc1 [JG-118, 2-((Z)-((E)-5-(6-chloro-3-methylbenzo[d]thiazol-2(3H)-ylidene)-3-ethyl-4-oxothiazolidin-2-ylidene)methyl)-3-(4-(trifluoromethyl)benzyl)thiazol-3-ium chloride]

- Kd (Hsc70 [5]): 1500 ± 300 nM
Compound: CCn1c(=O)/c(=C2\Sc3cc(Cl)ccc3N2C)s/c1=C\c1scc[n+]1Cc1ccccc1OC(F)F [JG-237, 2-((Z)-((E)-5-(6-chloro-3-methylbenzo[d]thiazol-2(3H)-ylidene)-3-ethyl-4-oxothiazolidin-2-ylidene)methyl)-3-(2-(difluoromethoxy)benzyl)thiazol-3-ium chloride]
